How the values were obtained:
HUVEC cells = assay: WST-1 proliferation assay; assay type: cell-based; details: in vitro, Figure 1B
Protocol: After observation of cells under the microscope, old media were removed and the adherent cells washed gently twice with PBS (Phosphate Buffer Saline, -Ca^2+, -Mg^2+, Lonza cat n°: 17-512F/12). All cells were detached with 3 ml of trypsin/EDTA (chelator of calcium and magnesium ions) (Lonza), incubated for 5 min at 37°C, and examined using a microscope to ensure that the cells were detached and floating. Then, 3 ml TNS (Trypsin Neutralizing Solution, Lonza, France, cat n° CC-5002) or of culture medium were added to inactivate the trypsin, and the cell suspension was transferred in a falcon tube and centrifuged for 7 min at 1400 rpm. The supernatant was removed and the cell pellet resuspended in […] of culture medium. 50 µL of this solution were transferred in 20 µL of isotonic solution and the cells were counted by count cellular (Beckman Coulter). […]
The cell proliferation WST-1 assay is a colorimetric assay for the quantification of cell proliferation and viability, based on the enzymatic cleavage of the tetrazolium salt WST-1 added to the culture medium, to a water soluble colored formazan dye, detected by absorbance at 450 nm, by mitochondrial succinate-tetrazoliumreductase in viable cells. […]

Neuropilin-1 (NRP-1) = molecular target: T1, Neuropilin-1 (NRP-1) (Homo sapiens, UniProt O14786); assay: ELISA, inhibition of VEGF binding to coated receptor; details: VEGF-A165b / NRP-1; compound at 10 µM; read-out: Percent of binding inhibition (± SD)
T1 construct: purchased R&D Systems, UK 3870-N1-025
T1 sequence (O14786 22-644 isoform O14786-2 limits assumed): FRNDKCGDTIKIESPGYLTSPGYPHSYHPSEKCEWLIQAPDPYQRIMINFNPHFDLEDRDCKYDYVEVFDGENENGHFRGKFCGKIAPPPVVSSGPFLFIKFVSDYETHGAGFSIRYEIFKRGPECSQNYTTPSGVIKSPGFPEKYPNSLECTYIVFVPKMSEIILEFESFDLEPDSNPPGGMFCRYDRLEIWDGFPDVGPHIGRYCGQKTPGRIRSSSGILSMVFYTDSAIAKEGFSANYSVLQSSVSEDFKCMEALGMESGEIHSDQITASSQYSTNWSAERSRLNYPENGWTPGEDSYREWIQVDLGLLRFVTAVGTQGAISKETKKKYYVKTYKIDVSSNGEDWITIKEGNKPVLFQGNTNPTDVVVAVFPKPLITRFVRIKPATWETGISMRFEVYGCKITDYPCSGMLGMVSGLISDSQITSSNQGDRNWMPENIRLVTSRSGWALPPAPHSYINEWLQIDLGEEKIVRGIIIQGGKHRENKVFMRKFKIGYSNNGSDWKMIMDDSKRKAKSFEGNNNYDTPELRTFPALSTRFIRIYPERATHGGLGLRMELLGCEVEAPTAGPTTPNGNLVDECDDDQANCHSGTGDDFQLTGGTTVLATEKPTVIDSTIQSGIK
Protocol: (§1) Elisa test was performed covering a 96-well microplate (BD Biosciences, France, cat n° 353046) surface with 100 µL of 1X PBS, pH 7.4 with Ca^2+ and Mg^2+, (Lonza, France, cat n° 17-513F/12) solution containing 0.2 µg/mL of VEGF-R1 (R&D Systems, UK, cat n° 321-FL-050/CF) or 2 µg/mL of NRP-1 (R&D Systems, UK, cat n° 3870-N1-025). The plate was sealed and incubated overnight at 4°C. After 3 washes with 200 µL of 1X PBS 0.5% (v/v) Tween 20 (Sigma, France, cat n° 34078) (Buffer A), the plate was blocked by adding 200 µL of 1× PBS with 0.5% (w/v) BSA (Eurobio, France, cat n° GAUBSA01-65) and agitated at 37°C for 2 h. […] Luminescence was quantified with an EnVision™ 2101 Multilabel reader (Perkin Elmer, USA) and the data analyzed by Wallac Envision manager software. […] Non-specific binding is defined as the signal measured in the absence of receptor coated on the microplate. The specific binding was calculated as the difference between total binding and non-specific binding. The percentage of inhibition was calculated as following: Inhibition % = 100 × ((Signal measured-non specific binding signal))/((Max binding signal obtained without inhibitor-non specific binding signal without receptor)) [formula]

VEGF-R1 = molecular target: T2, VEGF-R1 (Homo sapiens, UniProt P17948); assay: as above; details: VEGF-A165b / VEGF-R1; compound at 10 µM; read-out: Percent of binding inhibition (± SD)
T2 construct: purchased R&D Systems, UK 321-FL-050/CF
T2 sequence (P17948 with tags, fused parts or gaps limits assumed): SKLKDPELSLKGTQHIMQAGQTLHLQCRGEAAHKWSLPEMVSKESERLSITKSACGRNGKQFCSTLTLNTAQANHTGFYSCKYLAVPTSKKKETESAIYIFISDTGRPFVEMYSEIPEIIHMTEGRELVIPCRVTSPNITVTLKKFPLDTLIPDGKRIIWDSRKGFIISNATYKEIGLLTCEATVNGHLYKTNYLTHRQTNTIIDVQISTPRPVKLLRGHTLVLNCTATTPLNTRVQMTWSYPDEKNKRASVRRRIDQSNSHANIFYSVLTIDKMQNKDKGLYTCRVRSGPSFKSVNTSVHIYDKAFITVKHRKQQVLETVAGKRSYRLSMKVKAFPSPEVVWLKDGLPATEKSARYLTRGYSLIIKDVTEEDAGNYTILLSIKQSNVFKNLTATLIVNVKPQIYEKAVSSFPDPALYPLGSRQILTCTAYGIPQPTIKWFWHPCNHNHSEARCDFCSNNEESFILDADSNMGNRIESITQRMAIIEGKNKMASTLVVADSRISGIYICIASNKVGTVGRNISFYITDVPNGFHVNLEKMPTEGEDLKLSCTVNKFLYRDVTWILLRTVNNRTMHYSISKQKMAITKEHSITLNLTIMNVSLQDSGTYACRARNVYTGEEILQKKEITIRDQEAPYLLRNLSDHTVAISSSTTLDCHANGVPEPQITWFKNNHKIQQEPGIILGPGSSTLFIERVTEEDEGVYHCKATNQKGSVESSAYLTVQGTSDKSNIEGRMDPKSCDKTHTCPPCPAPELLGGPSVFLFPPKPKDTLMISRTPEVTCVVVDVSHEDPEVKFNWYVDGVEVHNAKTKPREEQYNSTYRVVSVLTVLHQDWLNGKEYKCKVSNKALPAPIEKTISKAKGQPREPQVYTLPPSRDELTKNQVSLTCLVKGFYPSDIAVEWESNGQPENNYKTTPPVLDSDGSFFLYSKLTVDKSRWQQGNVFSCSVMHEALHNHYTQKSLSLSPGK
Protocol: as §1

MDA-MB-231 cells = assay: Adhesion test (crystal violet); assay type: cell-based, human; details: in vitro, Figure 3A

CCOc1ccccc1NC(=O)c1ccc(C)c(S(=O)(=O)Nc2ccc(C)cc2)c1 [Compound 1, N-(2-ethoxyphenyl)-4-methyl-3-(N-(p-tolyl)sulfamoyl)benzamide] was tested, and the “proliferation of HUVEC cells” value (HUVEC cells) was “inhibited”, the inhibition at 10 µM (Neuropilin-1 (NRP-1)) was 32 ± 3.2% and the inhibition at 10 µM (VEGF-R1) was 23 ± 2.2%. The “adhesion of MDA-MB-231 cells” value (MDA-MB-231 cells) was “inhibits”.

Reference: EP2823816A1, “Inhibitors of Neuropilin and use thereof for the treatment of Neuropilin-related diseases” (Tragex Pharma, priority 2013, dated 2015)
